# Target: T1, ITK (Homo sapiens, UniProt Q08881)
# T1 construct: purchased Invitrogen PV3875
# T1 sequence (Q08881 1-620): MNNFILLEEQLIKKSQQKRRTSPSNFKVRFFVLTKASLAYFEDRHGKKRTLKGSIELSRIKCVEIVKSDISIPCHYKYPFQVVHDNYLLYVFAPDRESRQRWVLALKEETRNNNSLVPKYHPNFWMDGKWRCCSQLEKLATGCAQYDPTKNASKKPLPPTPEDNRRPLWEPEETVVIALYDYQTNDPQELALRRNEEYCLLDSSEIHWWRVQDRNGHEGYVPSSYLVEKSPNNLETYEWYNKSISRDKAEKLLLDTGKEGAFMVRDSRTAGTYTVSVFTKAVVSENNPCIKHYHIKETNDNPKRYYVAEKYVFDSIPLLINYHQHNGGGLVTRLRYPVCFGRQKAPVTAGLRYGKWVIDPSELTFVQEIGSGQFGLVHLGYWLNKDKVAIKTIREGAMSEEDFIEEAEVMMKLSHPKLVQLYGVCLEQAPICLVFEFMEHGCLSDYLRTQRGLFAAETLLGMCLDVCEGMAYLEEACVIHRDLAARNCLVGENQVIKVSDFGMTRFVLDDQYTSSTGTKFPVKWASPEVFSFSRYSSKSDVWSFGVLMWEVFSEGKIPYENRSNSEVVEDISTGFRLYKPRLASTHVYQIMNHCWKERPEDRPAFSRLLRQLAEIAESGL
# Assay: ITK enzyme assay (Caliper or LCMS peptide phosphorylation)
# Assay type: biochemical
# Details: purified ITK (Invitrogen PV3875), 20 μM ATP, Ki by Morrison's quadratic equation
# In short: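 Ki values come from Morrison quadratic fits of activity versus inhibitor concentration, adjusted for ATP-competitive inhibition against ATP/Km,app. Substrate and phosphopeptide from purified ITK reactions were resolved either microfluidically (Caliper, EDTA stop) or by LC-MS MRM (TCA stop).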
row,Structure (SMILES),Ki [nM]
1,"CC12Cc3[nH]nc(C(=O)Nc4cnn(C(CS(C)(=O)=O)c5cccnc5)c4)c3CC1C2 (single isomer, unassigned) [Example 93b, 5a-methyl-N-(1-(2-(methylsulfonyl)-1-(pyridin-3-yl)ethyl)-1H-pyrazol-4-yl)-1,4,4a,5,5a,6-hexahydrocyclopropa[f]indazole-3-carboxamide]",1
2,"CC1(C)Cc2[nH]nc(C(=O)Nc3cnn(C(c4ccccc4)C4CCS(=O)(=O)CC4)c3)c2C1 (single isomer, unassigned) [Example 94a, N-(1-((1,1-dioxidotetrahydro-2H-thiopyran-4-yl)(phenyl)methyl)-1H-pyrazol-4-yl)-5,5-dimethyl-1,4,5,6-tetrahydrocyclopenta[c]pyrazole-3-carboxamide]",0.3
3,"CC1(C)Cc2[nH]nc(C(=O)Nc3cnn(C(c4ccccc4)C4CCS(=O)(=O)CC4)c3)c2C1 (single isomer, unassigned) [Example 94b, N-(1-((1,1-dioxidotetrahydro-2H-thiopyran-4-yl)(phenyl)methyl)-1H-pyrazol-4-yl)-5,5-dimethyl-1,4,5,6-tetrahydrocyclopenta[c]pyrazole-3-carboxamide]",13
4,"CC1(C)Cc2[nH]nc(C(=O)Nc3cnn(Cc4ccccc4)c3)c2CC1CO (single isomer, unassigned) [Example 95a, N-(1-benzyl-1H-pyrazol-4-yl)-5-(hydroxymethyl)-6,6-dimethyl-4,5,6,7-tetrahydro-1H-indazole-3-carboxamide]",5
5,"CC1(C)Cc2[nH]nc(C(=O)Nc3cnn(Cc4ccccc4)c3)c2CC1CO (single isomer, unassigned) [Example 95b, N-(1-benzyl-1H-pyrazol-4-yl)-5-(hydroxymethyl)-6,6-dimethyl-4,5,6,7-tetrahydro-1H-indazole-3-carboxamide]",320
6,"CN(C)CC(c1ccccc1)n1cc(NC(=O)c2n[nH]c3c2CC(C)(C)C3)cn1 (single isomer, unassigned) [Example 96a, N-(1-(2-(dimethylamino)-1-phenylethyl)-1H-pyrazol-4-yl)-5,5-dimethyl-1,4,5,6-tetrahydrocyclopenta[c]pyrazole-3-carboxamide]",57
7,"CN(C)CC(c1ccccc1)n1cc(NC(=O)c2n[nH]c3c2CC(C)(C)C3)cn1 (single isomer, unassigned) [Example 96b, N-(1-(2-(dimethylamino)-1-phenylethyl)-1H-pyrazol-4-yl)-5,5-dimethyl-1,4,5,6-tetrahydrocyclopenta[c]pyrazole-3-carboxamide]",2
8,"CC1(C)Cc2[nH]nc(C(=O)Nc3cnn(C(CS(C)(=O)=O)c4cccnc4)c3)c2C1 (single isomer, unassigned) [Example 97a, 5,5-dimethyl-N-(1-(2-(methylsulfonyl)-1-(pyridin-3-yl)ethyl)-1H-pyrazol-4-yl)-1,4,5,6-tetrahydrocyclopenta[c]pyrazole-3-carboxamide]",2

# The next lines start with the values.
row,Ki [nM],Structure (SMILES)
1,6,"CC1(C)Cc2[nH]nc(C(=O)Nc3cnn(C(CS(C)(=O)=O)c4cccnc4)c3)c2C1 (single isomer, unassigned) [Example 97b, 5,5-dimethyl-N-(1-(2-(methylsulfonyl)-1-(pyridin-3-yl)ethyl)-1H-pyrazol-4-yl)-1,4,5,6-tetrahydrocyclopenta[c]pyrazole-3-carboxamide]"
2,8,"CC(c1cncs1)n1cc(NC(=O)c2n[nH]c3c2CCC(C)(C)C3)cn1 (single isomer, unassigned) [Example 98a, 6,6-dimethyl-N-(1-(1-(thiazol-5-yl)ethyl)-1H-pyrazol-4-yl)-4,5,6,7-tetrahydro-1H-indazole-3-carboxamide]"
3,2,"CC(c1cncs1)n1cc(NC(=O)c2n[nH]c3c2CCC(C)(C)C3)cn1 (single isomer, unassigned) [Example 98b, 6,6-dimethyl-N-(1-(1-(thiazol-5-yl)ethyl)-1H-pyrazol-4-yl)-4,5,6,7-tetrahydro-1H-indazole-3-carboxamide]"
4,4,"CCC(c1cnn(CC)c1)n1cc(NC(=O)c2n[nH]c3c2CCC(C)(C)C3)cn1 (single isomer, unassigned) [Example 99a, N-(1-(1-(1-ethyl-1H-pyrazol-4-yl)propyl)-1H-pyrazol-4-yl)-6,6-dimethyl-4,5,6,7-tetrahydro-1H-indazole-3-carboxamide]"
5,4,"CCC(c1cnn(CC)c1)n1cc(NC(=O)c2n[nH]c3c2CCC(C)(C)C3)cn1 (single isomer, unassigned) [Example 99b, N-(1-(1-(1-ethyl-1H-pyrazol-4-yl)propyl)-1H-pyrazol-4-yl)-6,6-dimethyl-4,5,6,7-tetrahydro-1H-indazole-3-carboxamide]"
6,17,"CCn1cc(C(C)n2cc(NC(=O)c3n[nH]c4c3CCC(C)(C)C4)cn2)cn1 (single isomer, unassigned) [Example 100a, N-(1-(1-(1-ethyl-1H-pyrazol-4-yl)ethyl)-1H-pyrazol-4-yl)-6,6-dimethyl-4,5,6,7-tetrahydro-1H-indazole-3-carboxamide]"
7,7,"CCn1cc(C(C)n2cc(NC(=O)c3n[nH]c4c3CCC(C)(C)C4)cn2)cn1 (single isomer, unassigned) [Example 100b, N-(1-(1-(1-ethyl-1H-pyrazol-4-yl)ethyl)-1H-pyrazol-4-yl)-6,6-dimethyl-4,5,6,7-tetrahydro-1H-indazole-3-carboxamide]"
8,41,"Cc1nnc(C(C)n2cc(NC(=O)c3n[nH]c4c3CCC(C)(C)C4)cn2)o1 (single isomer, unassigned) [Example 101a, 6,6-dimethyl-N-(1-(1-(5-methyl-1,3,4-oxadiazol-2-yl)ethyl)-1H-pyrazol-4-yl)-4,5,6,7-tetrahydro-1H-indazole-3-carboxamide]"
9,12,"Cc1nnc(C(C)n2cc(NC(=O)c3n[nH]c4c3CCC(C)(C)C4)cn2)o1 (single isomer, unassigned) [Example 101b, 6,6-dimethyl-N-(1-(1-(5-methyl-1,3,4-oxadiazol-2-yl)ethyl)-1H-pyrazol-4-yl)-4,5,6,7-tetrahydro-1H-indazole-3-carboxamide]"
10,300,"CC1(C#N)CCc2c(C(=O)Nc3cnn(Cc4ccccc4)c3)n[nH]c2C1 (single isomer, unassigned) [Example 102a, N-(1-benzyl-1H-pyrazol-4-yl)-6-cyano-6-methyl-4,5,6,7-tetrahydro-1H-indazole-3-carboxamide]"
11,10,"CC1(C#N)CCc2c(C(=O)Nc3cnn(Cc4ccccc4)c3)n[nH]c2C1 (single isomer, unassigned) [Example 102b, N-(1-benzyl-1H-pyrazol-4-yl)-6-cyano-6-methyl-4,5,6,7-tetrahydro-1H-indazole-3-carboxamide]"
12,20,"CC(c1ncco1)n1cc(NC(=O)c2n[nH]c3c2CCC(C)(C)C3)cn1 (single isomer, unassigned) [Example 103a, 6,6-dimethyl-N-(1-(1-(oxazol-2-yl)ethyl)-1H-pyrazol-4-yl)-4,5,6,7-tetrahydro-1H-indazole-3-carboxamide]"
13,9,"CC(c1ncco1)n1cc(NC(=O)c2n[nH]c3c2CCC(C)(C)C3)cn1 (single isomer, unassigned) [Example 103b, 6,6-dimethyl-N-(1-(1-(oxazol-2-yl)ethyl)-1H-pyrazol-4-yl)-4,5,6,7-tetrahydro-1H-indazole-3-carboxamide]"

# From patent US20160326142A1, “PYRAZOLE CARBOXAMIDE COMPOUNDS, COMPOSITIONS AND METHODS OF USE” (Genentech, Inc., priority 2012, published 2016)
